# Where two headings read alike, the source gives them in different places.
# Columns and labels:
# [1] = target: T1, EGFR (Homo sapiens, UniProt P00533); test: EGFR-Autophosphorylation Assay (AMIKA assay); assay type: biochemical; conditions: A431 membranes; for inhibition at 1 µM: 1 μM compound; for inhibition at 1 µM / inhibition at 10 µM: EGF-stimulated; for inhibition at 10 µM: 10 μM compound; for IC50: EGF 200 nM pre-treatment
# T1 construct: A431 crude membrane extracts as source of the receptor; endogenous in cells; host or cells: A431 human epidermoid carcinoma cells, crude membranes
# T1 sequence (P00533 25-1210): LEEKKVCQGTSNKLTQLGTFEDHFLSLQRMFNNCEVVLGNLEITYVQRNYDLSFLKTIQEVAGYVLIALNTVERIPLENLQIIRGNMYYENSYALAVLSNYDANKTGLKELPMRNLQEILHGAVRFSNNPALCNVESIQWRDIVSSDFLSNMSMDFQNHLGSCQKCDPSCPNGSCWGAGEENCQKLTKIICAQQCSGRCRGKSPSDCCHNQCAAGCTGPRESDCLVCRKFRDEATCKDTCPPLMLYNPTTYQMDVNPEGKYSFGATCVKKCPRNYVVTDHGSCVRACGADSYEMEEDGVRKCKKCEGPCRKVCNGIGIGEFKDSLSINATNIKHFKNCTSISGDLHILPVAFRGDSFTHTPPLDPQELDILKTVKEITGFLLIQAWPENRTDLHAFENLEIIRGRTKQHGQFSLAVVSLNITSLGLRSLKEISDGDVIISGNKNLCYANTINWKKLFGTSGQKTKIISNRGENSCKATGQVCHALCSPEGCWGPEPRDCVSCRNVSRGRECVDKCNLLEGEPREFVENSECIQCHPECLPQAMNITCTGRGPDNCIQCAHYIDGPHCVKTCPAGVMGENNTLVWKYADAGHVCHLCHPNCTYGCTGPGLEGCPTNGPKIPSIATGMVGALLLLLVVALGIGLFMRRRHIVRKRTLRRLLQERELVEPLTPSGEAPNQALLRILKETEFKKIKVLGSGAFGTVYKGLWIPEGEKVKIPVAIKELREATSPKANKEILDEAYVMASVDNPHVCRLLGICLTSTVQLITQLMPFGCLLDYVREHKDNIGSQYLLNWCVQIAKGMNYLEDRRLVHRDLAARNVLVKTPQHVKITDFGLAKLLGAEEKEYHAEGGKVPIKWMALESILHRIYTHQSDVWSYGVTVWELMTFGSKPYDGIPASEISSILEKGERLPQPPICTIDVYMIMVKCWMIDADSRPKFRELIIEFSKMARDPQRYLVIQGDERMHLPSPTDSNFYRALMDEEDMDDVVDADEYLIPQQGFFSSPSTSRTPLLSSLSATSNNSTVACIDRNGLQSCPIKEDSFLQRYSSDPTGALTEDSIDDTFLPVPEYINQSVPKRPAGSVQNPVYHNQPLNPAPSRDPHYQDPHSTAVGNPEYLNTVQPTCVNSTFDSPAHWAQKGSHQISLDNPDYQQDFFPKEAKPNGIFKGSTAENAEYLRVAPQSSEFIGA
# Method: EGFR-Autophosphorylation Assay (AMIKA assay) The EGFR autophosphorylation was assayed using A431 crude membrane extracts as source of the receptor. Membrane purification: Membranes were prepared as reported by A. Levitzky et al. (Methods in Enzymology 201, 347 (1991) with minor modifications and adapting the method to the A431 human epidermoid carcinoma cell line. Briefly, low density cells growing in RPMI 1640 plus 10% foetal calf serum were detached using 1 mM EDTA in phosphate buffer saline (PBS) and lysed in cold Lysing buffer (1 ml/10^6 cells) (20 mM HEPES pH 7.6, 10 mM NaCl, 2 mM EDTA, […], 1 mM PMSF). Cells were homogenized by 10 strokes in Dounce homogenizer. Nuclei and debris were removed by low speed centrifugation. Membranes were pelletized by ultracentrifugation (1 h, 100000×g) and resuspended in cold HNG buffer (50 mM HEPES pH 7.6, 125 mM NaCl, 10% glycerol). Protein concentration, determined by Pierce BCA method, was adjusted to 1.5-2 mg/ml. Aliquots were stored at -80° C. Determination of IC50 : […] The reaction was stopped with […] solution. The samples were heated 5 min at 95° C. and submitted to SDS-PAGE (7.5% acrylamide gel). Gels were fixed in 40% methanol:10% acetic acid for 1 h and washed overnight with 20% methanol:7% acetic acid. After 15 min in 50% methanol:2% glycerol gels were dried and exposed overnight. Bands corresponding to EGFR were excised from the gels and counted in a β-counter.
# [2] = test system: EGF-induced tyrosine phosphorylation in A431 cells; test: Inhibition of cellular tyrosine autophosphorylation (VAP assay); assay type: cell-based; conditions: Homo sapiens, A-431, 10 min, read-out: VAP IC50
# Method: Inhibition of cellular tyrosine autophosphorylation (VAP assay)
# EGF is able to induce the phosphorylation in tyrosine of a specific set of intracellular proteins including EGFR itself. This increase in tyrosine phosphorylation was measured using the Vectastain-ABC-AP kit (Vector Laboratories) following the manufacturer's instructions. Briefly, 2×10^4 A431 cells per well were plated into a microtiter plate and incubated for 3 days at 37° C./5% CO2 until the cultures reached confluency. Cell monolayers were washed with PBS and covered with fresh medium containing 0.1 bovine serum albumin (BSA). Serial dilution of test compounds were added 2 h before the addition of 100 ng/ml EGF; after 10 min stimulation the culture medium was withdrawn, cells were washed 2 times with PBS and fixed for 10 min with cold methanol (-20° C.). After fixation […] of blocking solution (3% BSA in PBS, 0.2% Tween 20, 1% normal horse serum) were added for 1 h at 37° C. Blocking solution was replaced with 3% BSA in PBS containing the antiphosphotyrosine antibody 4G10 (UBI) diluted 1:30000 and incubated for 1 h. […] Reaction was developed for 30 min in the dark and the plates were read at 405 nm.
# [3] = test system: A431 cells; test: SRB-Antiproliferative assay (A431 assay); assay type: cell-based; conditions: Homo sapiens, A-431, 72 h, read-out: A431 IC50
# Method: SRB-Antiproliferative assay (A431 assay)
# A431 cells were seeded into 96-well microtiter plates (5000 cells/cm^2) and incubated overnight at 37° C./5% CO2. Compounds dissolved in DMSO were added in serial dilution and plates were incubated for 3 days at 37° C./5% CO2. Cells were fixed with cold TCA (10% final concentration) and stained with 0.4% Sulforhodamine B dye in 1% acetic acid for 30 min.
"IC50 ([2]; A431 cells, 100 ng/ml EGF, 10 min stimulation) [nM]","IC50 ([3]; A431 cells, 3 days, SRB) [nM]",Structure (SMILES),inhibition at 1 µM [1] [%],inhibition at 10 µM [1] [%],IC50 [1] [nM],IC50 [2] [nM],IC50 [3] [nM]
–,–,"COc1cc2ncnc(N[C@H](COC(C)=O)c3ccccc3)c2cc1OC [FCE 29772, (S)-4-[α-(acetoxymethyl)benzylamino]-6,7dimethoxyquinazoline]",94.9,98,81,1310,5300
800,> 1560,"COc1cc2ncnc(N[C@H](CO)c3ccccc3)c2cc1OC [FCE 29771, (S)-4-[α-(hydroxymethyl)benzylamino]-6,7dimethoxyquinazoline]",93.8,98.3,24,–,–

# — patent US6057326A, “Bicyclic 4-aralkylaminopyrimidine derivatives as tyrosine kinase inhibitors” (Pharmacia & Upjohn S.p.A, priority 1996, dated 2000)
